These results are taken from patent US20190125896A1, “ANTI-INFECTIVE COMPOSITIONS COMPRISING PHYTOGLYCOGEN NANOPARTICLES” (MIREXUS BIOTECHNOLOGIES INC., priority 2016, published 2019).

Each structure is given as a SMILES string. In brackets after ≈: the same amount, converted by molar mass.

Test [1] relates to Candida utilis ATCC9950. The test can be described thus: MIC of amphotericin B-phytoglycogen conjugate, modified broth microdilution. The following applies: 35° C. The test is classed as cell-based. The protocol:
The activity of the amphotericin B-phytoglycogen conjugate (PHG-AMB) was assayed against a yeast, Candida utilis ATCC9950, using a modified broth microdilution assay (CLSI M27-A2; Example 15). RPMI 1640 medium (Sigma-Aldrich; Canada), containing no sodium bicarbonate, supplemented with 0.165 M MOPS and adjusted to a pH of 7.0, was used for the assay. Stocks of 1600 μg AMB/ml DMSO were stored at −80° C. and diluted prior to use. 500 μg PHG-AMB.ml^−1 RPMI 1640 was prepared fresh on the day of assay. Briefly, doubling dilutions of 16 μg AMB.ml^−1 RPMI 1640 and 500 μg PHG-AMB.ml^−1 RPMI 1640 were prepared by serial two-fold dilution in RPMI 1640. Controls comprised AMB supplemented with phytoglycogen adjusted to mimic the changing concentration of PHG-AMB in the wells. Negative growth control wells contained sterile medium. Positive growth control wells contained medium or medium supplemented with phytoglycogen. […] Assays were performed as in duplicate replicate with a minimum of three independent replicates.

The test system of test [2] is C. utilis ATCC9950. Nature of the test: Sensitization to antibiotics: MIC in medium supplemented with phytoglycogen. Format: cell-based. The following applies: Candida utilis. The protocol: (§1) MIC assays as defined in Example 15 were performed in sterile and untreated 96 well microtitre plates according to the broth micro-dilution technique described in either the Clinical and Laboratory Standards Institute document M07-A9: Methods for Dilution Antimicrobial Susceptibility Tests for Bacteria that Grow Aerobically; Approved Standard and document M27-A2 Reference Method for Broth Dilution Antifungal Susceptibility Testing of Yeasts; Approved Standard—Second Edition, with the exception that, where indicated, medium was additionally supplemented with native or cationized phytoglycogen. Assessments done using C. utilis ATCC9950, B. subtilis 168 and E. coli AB264 employed native or cationized phytoglycogen at concentrations ⅛, ¼, ½ their respective MIC values for cationized phytoglycogen. Assessments of the opportunistic pathogen P. aeruginosa PAO1 were made at final in-assay concentrations of 0.5, 1 or 10 mg native or cationized phytoglycogen.ml^−1. Experiments were performed as in-assay duplicates, and were repeated a minimum of three times (n=6).
(§2) MIC assays were performed in duplicate within each experiment and were repeated a minimum three times to confirm the data (n=6). MIC values with a four-fold or greater change relative to the non-supplemented medium MIC represent a statistically-significant change in MIC value. Only those antibiotic-cationized phytoglycogen combinations which caused a four-fold change relative to the non-supplemented medium MIC were deemed as indicative of resulting in potentiation (MIC value was less), or tolerance (MIC value increased).

In test [3] the test system is P. aeruginosa PAO1 biofilm. The test can be described thus: Biofilm eradication: 20 h biofilms treated with antibiotic and cationized phytoglycogen. Format: cell-based, Pseudomonas aeruginosa. The following applies: 24 h, medium alone. The protocol:
Biofilm growth and treatments were performed in sterile 96 well polystyrene plates. Sterile solutions of gamma-irradiated cationized phytoglycogen was prepared by reconstitution and dilution as required in sterile Mueller-Hinton broth. P. aeruginosa PAO1 stocks were revived by sub-culturing P. aeruginosa PAO1 (37° C., 150 rpm, 16-18 h) in Mueller-Hinton broth (Oxoid; Fisher Scientific, Canada). The inoculum was prepared immediately prior to use by diluting in sterile Mueller-Hinton broth to a final in-assay cell density of 5×10^5 CFU.ml^−1. 100 μl of this solution was transferred to wells and incubated (37° C., 150 rpm). Sterile broth was the negative growth control. At 20 h, plates were transferred to a biological safety cabinet, well contents were gently aspirated and the wells rinsed with sterile 0.9% (wt/vol) NaCl. […] Positive growth controls contained inoculated medium, non-supplemented or with 1 or 10 mg cationized phytoglycogen.ml^−1. Plates were incubated at 37° C. for a further 24 h, after which biofilms were quantitated as previously described. Experiments were done in quadruplicate replicate and repeated three times (n=12).

The test system of test [4] is Pseudomonas aeruginosa PAO1. Nature of the test: MIC broth micro-dilution. Format: cell-based. The following applies: P. aeruginosa PAO1, Mueller-Hinton broth, read-out: MIC value established empirically.
Method: Minimum inhibitory concentration (MIC) assays were done to evaluate antibacterial properties of cationized phytoglycogen. The MIC is defined as “the lowest concentration of an anti-infective agent that prevents visible growth of a micro-organism in an agar or broth dilution susceptibility test”.
MIC assessments against bacteria were performed following broth micro-dilution in accordance with the Clinical and Laboratory Standards Institute document M07-A9: Methods for Dilution Antimicrobial Susceptibility Tests for Bacteria that Grow Aerobically; Approved Standard. A Gram-positive organism, Bacillus subtilis 168, and two Gram-negative organisms, Escherichia coli AB264 (K-12) and Pseudomonas aeruginosa PAO1 were assessed. Long-term stock cultures of organisms were maintained at −80° C. in glycerol (15% vol/vol). Stocks were revived by sub-culturing onto trypticase soy agar plates, grown for 18 hrs at 37° C. and then stored at 4° C. for up to one week. Overnight cultures were grown by inoculating Mueller-Hinton broth with 3-4 colonies from stock plates and incubating for 20-24 hrs at 37° C. and 150 rpm. […] Plates were incubated at 37° C. for 20 h, at which points wells were scored for growth. […] Cationized phytoglycogen, prepared according to the alternative procedure detailed in Example 3, was also assessed in double-dilution increments from 19 to 10 000 μg.ml^−1. […]
The test system of test [5] is P. aeruginosa PAO1. Nature of the test: Sensitization to antibiotics: MIC in medium supplemented with phytoglycogen. Format: cell-based, Pseudomonas aeruginosa. The following applies: P. aeruginosa. As for the experimental part:
as §1, §2

The test system of test [6] is P. aeruginosa PAO1 biofilm. Nature of the test: Biofilm formation at sub-MIC tobramycin. The test is classed as cell-based, Pseudomonas aeruginosa. To be noted: non-supplemented medium. The protocol: The potential for cationized phytoglycogen to limit enhanced biofilm formation at sub-MIC concentrations of the aminoglycoside tobramycin was assessed in sterile 96 well polystyrene plates. P. aeruginosa PAO1 stocks were revived by sub-culturing P. aeruginosa PAO1 in Mueller-Hinton broth (Oxoid; Fisher Scientific, Canada) and grown for 20-22 h (37° C., 150 rpm). Sterile solutions of gamma-irradiated cationized phytoglycogen was prepared by reconstitution and dilution as required in sterile Mueller-Hinton broth. […] The inoculum was prepared immediately prior to use by diluting in sterile Mueller-Hinton broth, with a final in-assay cell density of 5×10^5 CFU.ml^−1. Plates were incubated statically at 37° C. At 20 h, biofilms were stained and quantitated according to the previously described protocol (Example 23). Experiments were done in quadruplicate replicate and repeated three times (n=12).

As for `C[C@@H]1[C@H](O)[C@@H](C)/C=C/C=C/C=C/C=C/C=C/C=C/C=C/[C@H](O[C@@H]2O[C@H](C)[C@@H](O)[C@H](N)[C@@H]2O)C[C@@H]2O[C@](O)(C[C@@H](O)C[C@@H](O)[C@H](O)CC[C@@H](O)C[C@@H](O)CC(=O)O[C@H]1C)C[C@H](O)[C@H]2C(=O)O` [amphotericin B], the MIC in test [1] (RPMI 1640, 48 h) came out at 0.5 μg AMB.ml^−1; in test [1] (RPMI 1640 supplemented with phytoglycogen, 48 h) it was 0.5 μg AMB.ml^−1. Besides, in test [2] (cationized phytoglycogen at 0.125 of its MIC), the “fold-change reduction in MIC, CP0.125” value is 1-2 fold. Moreover, the “fold-change reduction in MIC, CP0.25” value in test [2] (cationized phytoglycogen at 0.25 of its MIC) turned out to be 1 fold. Also, in test [2] (cationized phytoglycogen at half-strength of its MIC), the “fold-change reduction in MIC, CP0.5” value is reported as “↓4 fold”.
For the compound `NC[C@H]1O[C@H](O[C@H]2[C@H](O)[C@@H](O[C@H]3O[C@H](CO)[C@@H](O)[C@H](N)[C@H]3O)[C@H](N)C[C@@H]2N)[C@H](N)C[C@@H]1O` [tobramycin], the “change in biofilm of 20 h biofilms” value in test [3] (0.125 to 2 times the MIC) is on record as “net increase in biofilm proliferation”. In addition, the “reduction of biofilm relative to the initial biofilm” value in test [3] (four-fold the MIC) was determined as 40%. For the same compound, the MIC in test [4] was determined as 0.4 µg/mL (≈ 0.856 µM); in test [5] (Pseudomonas aeruginosa, PAO1, non-supplemented Mueller-Hinton Broth, read-out: MIC), 0.25 µg/mL. The “↓ Fold-change in MIC (cationized phytoglycogen) MIC.5 mg/ml” value in test [5] (0.5 mg cationized phytoglycogen · ml^−1 Mueller-Hinton Broth) came to 2 fold. Also, in test [5] (1 mg cationized phytoglycogen · ml^−1 Mueller-Hinton Broth), the “↓ Fold-change in MIC (cationized phytoglycogen) MIC1 mg/ml” value stood at 2 fold. Further, in test [5] (10 mg cationized phytoglycogen · ml^−1 Mueller-Hinton Broth), the “↓ Fold-change in MIC (cationized phytoglycogen) MIC10 mg/ml” value is listed as 1 fold. In addition, the results for the “factor of biofilm accumulation relative to the medium only control” value in test [6] (tobramycin at % -MIC), in test [6] (tobramycin at ¼-MIC) and in test [6] (tobramycin at ½-MIC) were 1.5, 1.33 and above 2.00, respectively.
